Measured values as given in patent US9516824B2, “Method for modulating the number of archesporial cells in a developing anther” (The Board of Trustees of the Leland Stanford Junior …, priority 2012, dated 2016).
“Also recorded” adds a separate entry of the source.

Assays:
maize anthers [1] = assay: Oxygen tension / ROS manipulation of the tassel airspace (gas by hose or needle, chemical injection): locule cell counts and SPL/EN bilayer progression by confocal imaging; conditions: for AR specification / AR cell counts compared to puncture controls: injected into tassel airspace: 1 mM H2O2, 10 mM KI, 200 μM PTIO, 48 h prior to dissection; for AR specification / AR cell counts compared to puncture controls / somatic bilayer formation / development / AR morphological differentiation: 100 μM L-NNA, 20 μM SNP; for somatic bilayer formation / development: injected: 1 mM H2O2, 200 μM PTIO, compared to puncture control and untreated; for peripheral counts compared to needle puncture control / total L2 counts compared to needle puncture control: injection of 1 mL of 1 mM H2O2 or 10 mM KI; for AR morphological differentiation: injected: 200 μM PTIO; for SPL/EN bilayer (somatic niche) formation: gas treatment by hose or needle, 24 or 48 h; for peripheral somatic cell counts: late stages after 48 hour gas exposure
Description: Fertile W23 inbred anthers were stained with propidium iodide and imaged in Z-stack using a Leica SP5 confocal microscope (6). The ontogeny of locular cell types was cataloged over ˜2.5 days as anthers grew in length from 100 to 300 μm. […] The morphological characteristics of pre-meiotic cells are well established (18).
N2 or O2 gas was administered through hoses threaded into the leaf whorl (FIG. 15B). […] Alternatively, nitrogen, oxygen, or compressed air (20% O2) were administered by connecting gas lines to a needle inserted into the tassel airspace (FIGS. 15, C and D). In all experiments, a low flow of gas was administered over a 24 (A619) or 48 hour period (W23). Total locule cells (FIGS. 2, B, H, and M), peripheral somatic cells (FIGS. 2, C, I, and N), and central AR cells (FIGS. 2, D, J, and O) were quantified.
Confocal imaging, and EdU and PI staining were performed as described previously (6). Oxygen probe was an Oxygraph Tx3 (NTH-Pst1-L5-NS40-0.8-YOP) obtained from Presens (Regensburg, Germany). All chemicals were obtained from Sigma Chemical Co. (St. Louis, Mo.) and dissolved in water at the indicated molarities and injected using a 26 gauge needle into the airspace surrounding the immature tassel.

maize anthers [2] = assay: Ectopic archesporial (AR) cell formation after reducing or oxidizing treatments; assay type: in vivo; conditions: for ectopic AR location by CT: internal (near or in the CT and VT); for # having ectopic AR: number of anthers; for ectopic AR location by EPI: superficial (near or on the EPI)
[3] = fertile, needle trial, 48 h gas treatment
[4] = fertile genotype, listed as N2 (direct)
[5] = fertile genotype, listed as N2 (hose)
[6] = fertile genotype, listed as O2 (direct)
[7] = fertile genotype, listed as O2 (hose)

| Compound | AR count (treatment effect) (maize anthers [1]; fertile genotype) | SPL/EN timing (treatment effect) (maize anthers [1]; fertile genotype) | AR specification / AR cell counts compared to puncture controls (maize anthers [1]) | somatic bilayer formation / development (maize anthers [1]) | AR count (treatment effect) (maize anthers [1]; mac1 genotype) | ectopic AR location by CT (maize anthers [2]; fertile genotype) | # having ectopic AR (maize anthers [2]; fertile genotype) | ectopic AR location by EPI (maize anthers [2]; fertile genotype) | ectopic AR location by CT (maize anthers [2]; mac1 genotype) | # having ectopic AR (maize anthers [2]; mac1 genotype) | ectopic AR location by EPI (maize anthers [2]; mac1 genotype) | AR specification in msca1 anthers (maize anthers [2]) | ectopic AR location by CT (maize anthers [2]; msca1 genotype) | # having ectopic AR (maize anthers [2]; msca1 genotype) | ectopic AR location by EPI (maize anthers [2]; msca1 genotype) | AR count (treatment effect) (maize anthers [1]; msca1 genotype) | AR per event (average count of ectopic AR cells in each instance) (maize anthers [2]; fertile genotype) | niche - forming (periclinal divisions generating EN/SPL-like bilayer around ectopic AR) (maize anthers [2]; fertile genotype) | other results |
| --- | --- | --- | --- | --- | --- | --- | --- | --- | --- | --- | --- | --- | --- | --- | --- | --- | --- | --- | --- |
| c1ccc2c(c1)[I+]c1ccccc1-2 [DPI, Diphenylene iodonium] | – | – | – | – | – | – | – | – | – | – | – | – | – | – | – | – | – | – | effect on tassel tissues (maize anthers [1]; injected into tassel airspace): complete degeneration of the tassel tissues |
| OO [H2O2, hydrogen peroxide] | fewer | delayed | lowered AR cell counts | inhibited subsequent somatic bilayer formation | extra | 0 | 0 | 0 | 0 | 0 | 0 | lacked AR | 0 | 0 | 0 | – | – | – | peripheral counts compared to needle puncture control (maize anthers [1]): greatly reduced; total L2 counts compared to needle puncture control (maize anthers [1]): greatly reduced; AR per event (average count of ectopic AR cells in each instance) (maize anthers [2]; msca1 genotype): 2; niche - forming (periclinal divisions generating EN/SPL-like bilayer around ectopic AR) (maize anthers [2]; msca1 genotype): yes |
| [I-].[K+] [KI] | extra | early | dramatically promoted AR specification | – | extra | 0 | 2 | 2 | – | 0 | 0 | caused AR specification | – | 6 | 5 | extra | 7 | – | AR:total L2 ratios (maize anthers [1]; 10 mM KI injected): increased AR:total L2 ratios; peripheral counts compared to needle puncture control (maize anthers [1]): did not alter; total L2 counts compared to needle puncture control (maize anthers [1]): did not alter; AR per event (average count of ectopic AR cells in each instance) (maize anthers [2]; msca1 genotype): 3; percent of treated anthers having AR cells (maize anthers [2]; msca1 mutant, 20 μM SNP or KI injected): 9.5% |
| N=C(NCCC[C@H](N)C(=O)O)N[N+](=O)[O-] [L-NNA, N^G-nitro-L-Arginine] | fewer | delayed | slightly repressed; also recorded: slightly suppressed AR counts | dramatically delayed | extra | 1 | 1 | 0 | 0 | 0 | 0 | lacked AR | 0 | 0 | 0 | – | 2 | yes | AR morphological differentiation (maize anthers [1]): slowed the morphological differentiation of central AR cells; also recorded: delayed AR morphological differentiation |
| N#N [N2, nitrogen] | extra | early | – | – | extra | 0 | – | – | 2 | 7 | 5 | – | 0 | 0 | 0 | none | 5 | – | AR specification and AR cell counts compared to untreated fertile anthers (maize anthers [1]; fertile, all three gas protocols (hose 48 h W23, hose 24 h A619, needle)): early specification and excess AR cells; AR:total L2 ratio (maize anthers [1]; fertile, gas treatment): elevated ratios; SPL/EN bilayer (somatic niche) formation (maize anthers [1]; fertile): formed early; also recorded: precocious bilayer formation; central AR as fraction of total L2 cells (maize anthers [1]; fertile, gas treatment, early stages): up to 25%; peripheral somatic cell counts (maize anthers [1]; fertile): increased peripheral somatic cell counts; AR counts (maize anthers [1]; [3]): Excess presumptive AR cells; # having ectopic AR (maize anthers [2]; [4]): 4; # having ectopic AR (maize anthers [2]; [5]): 0; ectopic AR location by EPI (maize anthers [2]; [4]): 4; ectopic AR location by EPI (maize anthers [2]; [5]): 0; ectopic AR formation (maize anthers [2]; hose protocol): did not cause ectopic AR in any anthers; AR per event (average count of ectopic AR cells in each instance) (maize anthers [2]; mac1 genotype): 3 |
| O=O [O2, oxygen] | – | – | – | – | extra | – | – | – | 0 | 0 | 0 | – | 0 | 0 | 0 | none | 3.7 | ~half | AR count (treatment effect) (maize anthers [1]; [6]): extra; SPL/EN timing (treatment effect) (maize anthers [1]; [6]): delayed; AR count (treatment effect) (maize anthers [1]; [7]): fewer; SPL/EN timing (treatment effect) (maize anthers [1]; [7]): late; SPL/EN bilayer (somatic niche) formation (maize anthers [1]; fertile): delayed; AR specification (maize anthers [1]; fertile, hose gas treatment): repressed AR specification; AR counts (maize anthers [1]; fertile, hose, 24 hour exposure): significantly fewer AR than either untreated or N2; central AR counts (maize anthers [1]; fertile, hose, 48 hour treatment): far lower than N2; peripheral somatic cell counts (maize anthers [1]; fertile): increased peripheral somatic cells in the late stages; AR counts (maize anthers [1]; [3]): elevated in the needle trial, less than compressed air and dramatically less than nitrogen; ectopic AR location by CT (maize anthers [2]; [6]): 12; ectopic AR location by CT (maize anthers [2]; [7]): 0; # having ectopic AR (maize anthers [2]; [6]): 18; # having ectopic AR (maize anthers [2]; [7]): 0; ectopic AR location by EPI (maize anthers [2]; [6]): 6; ectopic AR location by EPI (maize anthers [2]; [7]): 0 |
| CC1(C)N([O])C(c2ccccc2)=[N+]([O-])C1(C)C [PTIO, 2-Phenyl-4,4,5,5-tetramethylimidazoline-1-oxyl-3-oxide] | fewer | delayed | slightly repressed; also recorded: slightly suppressed AR counts | dramatically delayed | extra | 3 | 4 | 1 | 0 | 0 | 0 | lacked AR | 0 | 0 | 0 | – | 5 | yes | AR morphological differentiation (maize anthers [1]): slowed the morphological differentiation of central AR cells; also recorded: delayed AR morphological differentiation |
